Reference: patent US20180194762A1 (Pharmacyclics LLC, priority 2017, published 2018)

Columns and labels:
Assay type in all cases: biochemical
Btk = biological target: T1, Btk (Homo sapiens, UniProt Q06187); experiment: Btk in vitro inhibitory activity (one of Method A TR-FRET, Method B electrophoretic mobility shift, Method C radiometric filter binding); details: wild-type Btk; read-out: Btk-WT IC50
T1 construct: purified from insect cells as a full-length construct containing a N-terminal 6X-His tag; His6 (N); made in house; host or cells: insect cells (Method C)
T1 sequence (Q06187 whole entry): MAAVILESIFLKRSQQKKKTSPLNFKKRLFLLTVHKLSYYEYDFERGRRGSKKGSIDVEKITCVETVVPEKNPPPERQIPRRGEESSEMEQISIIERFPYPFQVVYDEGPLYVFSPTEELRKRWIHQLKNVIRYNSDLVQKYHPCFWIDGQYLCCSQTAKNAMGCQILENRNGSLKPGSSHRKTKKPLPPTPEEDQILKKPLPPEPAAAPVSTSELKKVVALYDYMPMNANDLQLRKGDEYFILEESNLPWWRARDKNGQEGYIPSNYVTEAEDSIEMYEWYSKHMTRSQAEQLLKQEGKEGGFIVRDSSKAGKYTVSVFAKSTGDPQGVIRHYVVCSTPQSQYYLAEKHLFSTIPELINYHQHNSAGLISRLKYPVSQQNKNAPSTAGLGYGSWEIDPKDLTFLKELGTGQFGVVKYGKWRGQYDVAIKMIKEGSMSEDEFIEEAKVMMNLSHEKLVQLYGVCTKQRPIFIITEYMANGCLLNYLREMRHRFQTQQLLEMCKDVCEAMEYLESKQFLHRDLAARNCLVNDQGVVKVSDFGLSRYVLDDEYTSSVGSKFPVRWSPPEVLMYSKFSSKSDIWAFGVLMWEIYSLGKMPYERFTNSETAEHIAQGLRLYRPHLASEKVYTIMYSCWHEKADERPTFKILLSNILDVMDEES
Summary of the method: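 Method A: TR-FRET with 0.5 nM Btk at [ATP]=Km, EDTA-quenched, 665/615 nm ratio; Ki(app) converted to IC50. Method B: 1 nM full-length His6 human BTK, 1 μM FAM peptide, pH 7.5, mobility-shift product/sum ratio, 12-point 4-parameter fit. Method C: radiometric filter binding, 8 nM His-tagged BTK, 0.2 mg/mL poly-Glu-Tyr.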

TEC = biological target: T2, TEC (Homo sapiens, UniProt P42680); experiment: Inhibition of a panel of kinases (in vitro HotSpot kinase assay, 33P-ATP, 1 μM ATP); details: for IC50: HotSpot kinase assay, 1 μM ATP; for TEC/Btk: ratio of TEC IC50 to Btk IC50 (selectivity)
T2 sequence (P42680 1-631): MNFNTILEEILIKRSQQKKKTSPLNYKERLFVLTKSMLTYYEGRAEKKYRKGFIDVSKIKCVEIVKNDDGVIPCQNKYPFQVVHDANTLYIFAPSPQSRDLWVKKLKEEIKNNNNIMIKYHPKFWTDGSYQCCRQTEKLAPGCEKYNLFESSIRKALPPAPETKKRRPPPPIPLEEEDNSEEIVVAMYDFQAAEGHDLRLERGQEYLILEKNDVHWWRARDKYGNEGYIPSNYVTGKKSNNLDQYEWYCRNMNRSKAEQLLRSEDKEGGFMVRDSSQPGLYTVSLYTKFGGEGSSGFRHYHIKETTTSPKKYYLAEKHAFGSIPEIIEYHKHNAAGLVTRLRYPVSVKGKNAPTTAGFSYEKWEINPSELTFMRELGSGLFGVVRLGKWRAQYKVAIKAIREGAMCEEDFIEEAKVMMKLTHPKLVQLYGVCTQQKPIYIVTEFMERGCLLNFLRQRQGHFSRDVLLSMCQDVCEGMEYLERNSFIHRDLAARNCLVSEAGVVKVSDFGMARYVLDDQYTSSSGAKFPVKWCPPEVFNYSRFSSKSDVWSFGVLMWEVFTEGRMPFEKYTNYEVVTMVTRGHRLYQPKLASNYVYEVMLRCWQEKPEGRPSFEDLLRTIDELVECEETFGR
Summary of the method: (§1)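 Purified kinase enzymes were incubated with an appropriate substrate and 33P-labelled ATP at 1 μM ATP. Inhibition was measured radiometrically from incorporation of the 33P label.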

panel of kinases = biological target: T3, panel of kinases (Homo sapiens, UniProt P51813); experiment: Inhibition of a panel of kinases (in vitro HotSpot kinase assay, 33P-ATP, 1 μM ATP), other kinases; details: BMX wild-type, read-out: BMX-WT IC50
T3 sequence (P51813 1-675): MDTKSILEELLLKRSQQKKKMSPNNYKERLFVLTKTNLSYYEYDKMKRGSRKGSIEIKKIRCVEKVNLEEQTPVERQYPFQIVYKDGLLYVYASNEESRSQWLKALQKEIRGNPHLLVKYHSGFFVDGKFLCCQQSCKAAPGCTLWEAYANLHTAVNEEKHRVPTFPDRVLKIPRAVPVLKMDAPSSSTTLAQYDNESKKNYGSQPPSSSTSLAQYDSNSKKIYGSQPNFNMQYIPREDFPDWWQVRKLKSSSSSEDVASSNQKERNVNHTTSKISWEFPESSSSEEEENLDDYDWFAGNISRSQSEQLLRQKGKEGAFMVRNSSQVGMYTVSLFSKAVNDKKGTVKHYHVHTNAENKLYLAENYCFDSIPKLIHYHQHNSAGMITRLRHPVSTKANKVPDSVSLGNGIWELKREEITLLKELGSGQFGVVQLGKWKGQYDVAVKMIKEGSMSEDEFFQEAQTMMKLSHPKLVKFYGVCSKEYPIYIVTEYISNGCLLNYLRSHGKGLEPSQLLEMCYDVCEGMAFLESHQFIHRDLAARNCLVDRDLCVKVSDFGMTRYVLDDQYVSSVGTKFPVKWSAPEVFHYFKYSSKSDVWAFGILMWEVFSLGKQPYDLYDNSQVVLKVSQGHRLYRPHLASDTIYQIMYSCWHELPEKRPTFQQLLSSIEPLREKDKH
Summary of the method: as §1

IC50 (Btk) [nM]	IC50 (TEC) [nM]	IC50 (panel of kinases) [nM]	TEC/Btk (TEC)	Compound
> 10000	6410	1710		O=C(NCc1ccc(-c2ccnc3[nH]nc(N[C@@H]4CCNC4)c23)cc1F)c1ccccc1 [Compound 31, (R)—N-(2-fluoro-4-(3-(pyrrolidin-3-ylamino)-1H-pyrazolo[3,4-b]pyridin-4-yl)benzyl)benzamide]
328	5440	1410	17	Cc1ccc(C(=O)NCc2ccc(-c3ccnc4[nH]nc(N[C@@H]5CCNC5)c34)cc2F)cc1 [Compound 32, (R)—N-(2-fluoro-4-(3-(pyrrolidin-3-ylamino)-1H-pyrazolo[3,4-b]pyridin-4-yl)benzyl)-4-methylbenzamide]
15	217	25	14	C=CC(=O)N1CC[C@@H](Nc2n[nH]c3nccc(-c4ccc(CNC(=O)c5ccccc5)c(F)c4)c23)C1 [Compound 33, (R)—N-(4-(3-((1-acryloylpyrrolidin-3-yl)amino)-1H-pyrazolo[3,4-b]pyridin-4-yl)-2-fluorobenzyl)benzamide]
1.76	55	16	31	C=CC(=O)N1CC[C@@H](Nc2n[nH]c3nccc(-c4ccc(CNC(=O)c5ccc(C)cc5)c(F)c4)c23)C1 [Compound 34, (R)—N-(4-(3-((1-acryloylpyrrolidin-3-yl)amino)-1H-pyrazolo[3,4-b]pyridin-4-yl)-2-fluorobenzyl)-4-methylbenzamide]
505	7000	8480	14	O=C(NCc1ccc(-c2ccnc3[nH]nc(N[C@@H]4CCNC4)c23)cc1F)c1ccc(C2CC2)cc1 [Compound 35, 4-cyclopropyl-N-{[2-fluoro-4-(3-{[(3R)-pyrrolidin-3-yl]amino}-1H-pyrazolo[3,4-b]pyridin-4-yl)phenyl]methyl}benzamide]
433	> 10000	> 10000	>100	CC(C)(C)c1ccc2c(c1)CCN(Cc1ccc(-c3ccnc4[nH]nc(N[C@@H]5CCNC5)c34)cc1F)C2=O [Compound 36, 6-tert-butyl-2-{[2-fluoro-4-(3-{[(3R)-pyrrolidin-3-yl]amino}-1H-pyrazolo[3,4-b]pyridin-4-yl)phenyl]methyl}-1,2,3,4-tetrahydroisoquinolin-1-one]
53.9	> 10000	8820	>100	CC(C)(C)c1ccc(C(=O)NCc2ccc(-c3ccnc4[nH]nc(N[C@H]5CCNC5)c34)cc2F)cc1 [Compound 37, 4-tert-butyl-N-{[2-fluoro-4-(3-{[(3S)-pyrrolidin-3-yl]amino}-1H-pyrazolo[3,4-b]pyridin-4-yl)phenyl]methyl}benzamide]
> 10000	> 10000	> 10000		CC(C)(C)c1ccc2c(c1)CCN(Cc1ccc(-c3ccnc4[nH]nc(N[C@H]5CC[C@H](O)CC5)c34)cc1F)C2=O [Compound 38, 6-tert-butyl-2-{[2-fluoro-4-(3-{[(11r,4r)-4-hydroxycyclohexyl]amino}-1H-pyrazolo[3,4-b]pyridin-4-yl)phenyl]methyl}-1,2,3,4-tetrahydroisoquinolin-1-one]
63.6	4680	3820	74	CC(C)(C)c1ncc(C(=O)NCc2ccc(-c3ccnc4[nH]nc(N[C@H]5CC[C@H](O)CC5)c34)cc2F)o1 [Compound 39, 2-tert-butyl-N-{[2-fluoro-4-(3-{[(1r,4r)-4-hydroxycyclohexyl]amino}-1H-pyrazolo[3,4-b]pyridin-4-yl)phenyl]methyl}-1,3-oxazole-5-carboxamide]
1.27	47	54	37	C=CC(=O)N1CC[C@@H](Nc2n[nH]c3nccc(-c4ccc(CNC(=O)c5ccc(C6CC6)cc5)c(F)c4)c23)C1 [Compound 40, 4-cyclopropyl-N-{[2-fluoro-4-(3-{[(3R)-1-(prop-2-enoyl)pyrrolidin-3-yl]amino}-1H-pyrazolo[3,4-b]pyridin-4-yl)phenyl]methyl}benzamide]
251	3010	> 10000	12	CC1(C(=O)N2CC[C@@H](Nc3n[nH]c4nccc(-c5ccc(CNC(=O)c6ccc(C7CC7)cc6)c(F)c5)c34)C2)COC1 [Compound 41, 4-cyclopropyl-N-{[2-fluoro-4-(3-{[(3R)-1-(3-methyloxetane-3-carbonyl)pyrrolidin-3-yl]amino}-1H-pyrazolo[3,4-b]pyridin-4-yl)phenyl]methyl}benzamide]
> 10000	> 10000	> 10000		CC(C)(C)c1ccc(C(=O)Nc2ccc(-c3ccnc4[nH]nc(N[C@@H]5CCNC5)c34)cc2F)cc1 [Compound 42, 4-tert-butyl-N-[2-fluoro-4-(3-{[(3R)-pyrrolidin-3-yl]amino}-1H-pyrazolo[3,4-b]pyridin-4-yl)phenyl]benzamide]
2.76	599	394	217	C=CC(=O)N1CC[C@@H](Nc2n[nH]c3nccc(-c4ccc(CN5CCc6cc(C(C)(C)C)ccc6C5=O)c(F)c4)c23)C1 [Compound 43, 6-tert-butyl-2-{[2-fluoro-4-(3-{[(3R)-1-(prop-2-enoyl)pyrrolidin-3-yl]amino}-1H-pyrazolo[3,4-b]pyridin-4-yl)phenyl]methyl}-1,2,3,4-tetrahydroisoquinolin-1-one]
68.2	7940	5390	116	C=CC(=O)N1CC[C@H](Nc2n[nH]c3nccc(-c4ccc(CNC(=O)c5ccc(C(C)(C)C)cc5)c(F)c4)c23)C1 [Compound 44, (S)—N-(4-(3-((1-acryloylpyrrolidin-3-yl)amino)-1H-pyrazolo[3,4-b]pyridin-4-yl)-2-fluorobenzyl)-4-(tert-butyl)benzamide]
> 10000	1920	449	>100	C=CC(=O)N1CC[C@@H](Nc2n[nH]c3nccc(-c4ccc(NC(=O)c5ccc(C(C)(C)C)cc5)c(F)c4)c23)C1 [Compound 45]
8.55	182	91	21	C=CC(=O)N1CC[C@@H](Nc2n[nH]c3nccc(-c4ccc(CNC(=O)c5cccc(C(C)(C)C)c5)c(F)c4)c23)C1 [Compound 46, (R)—N-(4-(3-((1-acryloylpyrrolidin-3-yl)amino)-1H-pyrazolo[3,4-b]pyridin-4-yl)-2-fluorobenzyl)-3-(tert-butyl)benzamide]
682	2940	1830	4	C=CC(=O)N1CC[C@@H](Nc2n[nH]c3nccc(-c4ccc(CNC(=O)c5ccc(C(=C)C)cc5)c(F)c4)c23)C1 [Compound 47, (R)—N-(4-(3-((1-acryloylpyrrolidin-3-yl)amino)-1H-pyrazolo[3,4-b]pyridin-4-yl)-2-fluorobenzyl)-4-(prop-1-en-2-yl)benzamide]
0.798	65	46	81	C=CC(=O)N1CC[C@@H](Nc2n[nH]c3nccc(-c4ccc(CNC(=O)c5ccc(C(F)(F)F)cc5)c(F)c4)c23)C1 [Compound 48, (R)—N-(4-(3-((1-acryloylpyrrolidin-3-yl)amino)-1H-pyrazolo[3,4-b]pyridin-4-yl)-2-fluorobenzyl)-4-(trifluoromethyl)benzamide]
